Reference: ChEMBL document CHEMBL5244280, “Evodiamine Lowers Blood Lipids by Up-Regulating the PPARγ/ABCG1 Pathway in High-Fat-Diet-Fed Mice” (J Nat Prod, 2021)
The source made the active and inactive calls. The calls are words filed in the database; no cut-off is given here.

Experiments:
[1] = Toxicity in normal diet fed ICR mouse assessed as ratio of lung weight to body weight at 10 mg/kg, ig administered daily via gavage for 8 weeks (reference value: 0.83 +/-0.32); format: organism-based; settings: in vivo, po, 1344 h
[2] = test system: Mus musculus; assay: Protection against hyperlipidemia in high fat diet-fed hyperlipidemic ICR mouse model assessed as reduction in serum LDL-C content at 20 mg/kg, ig administered daily via gavage for 8 weeks by spectrophotometric analysis; format: functional, organism-based
[3] = Toxicity in high fat diet fed hyperlipidemic ICR mouse model assessed as ratio of lung weight to body weight at 10 mg/kg, ig administered daily via gavage for 8 weeks (reference value: 0.93 +/-0.28); format: organism-based; settings: in vivo, po, 1344 h
[4] = test system: Mus musculus; assay: Protection against hyperlipidemia in high fat diet-fed hyperlipidemic ICR mouse model assessed as reduction in serum total cholesterol content at 10 mg/kg, ig administered daily via gavage for 8 weeks by spectrophotometric analysis; format: functional; settings: po, 1344 h
[5] = Toxicity in normal diet fed ICR mouse assessed as hepatic triglyceride content at 10 mg/kg, ig administered daily via gavage for 8 weeks by colorimetric assay; format: organism-based; settings: in vivo, po, 1344 h
[6] = test system: Mus musculus; assay: Protection against hyperlipidemia in high fat diet-fed hyperlipidemic ICR mouse model assessed as reduction in serum LDL-C content at 10 mg/kg, ig administered daily via gavage for 8 weeks by spectrophotometric analysis; format: functional; settings: po, 1344 h
[7] = test system: Mus musculus; assay: Protection against hyperlipidemia in high fat diet-fed hyperlipidemic ICR mouse model assessed as reduction in hepatic triglyceride content at 20 mg/kg, ig administered daily via gavage for 8 weeks by colorimetric assay; format: functional, organism-based
[8] = Toxicity in normal diet fed ICR mouse assessed as liver morphological changes at 10 mg/kg, ig administered daily via gavage for 8 weeks; format: organism-based; settings: in vivo, po, 1344 h
[9] = Toxicity in normal diet fed ICR mouse assessed as liver histological changes at 10 mg/kg, ig administered daily via gavage for 8 weeks by Hematoxylin and eosin staining based analysis; format: organism-based; settings: in vivo, po, 1344 h
[10] = Toxicity against normal diet-fed ICR mouse assessed as effect on plasma HDL-C content at 10 mg/kg, ig administered daily via gavage for 8 weeks by spectrophotometric analysis; format: organism-based; settings: in vivo, po, 1344 h
[11] = Toxicity against normal diet-fed ICR mouse assessed as effect on plasma LDL-C content at 10 mg/kg, ig administered daily via gavage for 8 weeks by spectrophotometric analysis; format: organism-based; settings: in vivo, po, 1344 h
[12] = test system: Mus musculus; assay: Upregulation of SR-B1 mRNA expression in liver of high fat diet fed hyperlipidemic ICR mouse model at 10 mg/kg, ig administered daily via gavage for 8 weeks by qPCR analysis; format: functional, organism-based
[13] = Toxicity against normal diet-fed ICR mouse assessed as effect on plasma triglyceride content at 10 mg/kg, ig administered daily via gavage for 8 weeks by spectrophotometric analysis; format: organism-based; settings: in vivo, po, 1344 h
[14] = test system: Mus musculus; assay: Protection against hyperlipidemia in high fat diet-fed hyperlipidemic ICR mouse model assessed as reduction in hepatic TBA content at 10 to 20 mg/kg, ig administered daily via gavage for 8 weeks by colorimetric assay; format: functional, organism-based; settings: dose 10-20 mg/kg
[15] = test system: Mus musculus; assay: Upregulation of ABCG8 protein expression in liver of high fat diet fed hyperlipidemic ICR mouse model at 10 mg/kg, ig administered daily via gavage for 8 weeks by western blotting analysis; format: functional, organism-based
[16] = test system: Mus musculus; assay: Upregulation of PPAR-gamma protein expression in liver of high fat diet fed hyperlipidemic ICR mouse model at 10 to 20 mg/kg, ig administered daily via gavage for 8 weeks by western blotting analysis; format: functional, organism-based; settings: dose 10-20 mg/kg
[17] = test system: Mus musculus; assay: Upregulation of SR-B1 protein expression in liver of normal diet fed ICR mouse at 10 mg/kg, ig administered daily via gavage for 8 weeks by western blotting analysis; format: functional, organism-based
[18] = test system: Mus musculus; assay: Protection against hyperlipidemia in high fat diet-fed hyperlipidemic ICR mouse model assessed as serum HDL-C content at 10 mg/kg, ig administered daily via gavage for 8 weeks by spectrophotometric analysis; format: functional, organism-based
[19] = test system: Mus musculus; assay: Protection against hyperlipidemia in high fat diet-fed hyperlipidemic ICR mouse model assessed as reduction in serum triglyceride content at 20 mg/kg, ig administered daily via gavage for 8 weeks by spectrophotometric analysis; format: functional, organism-based
[20] = test system: Mus musculus; assay: Upregulation of PPAR-gamma mRNA expression in liver of high fat diet fed hyperlipidemic ICR mouse model at 10 to 20 mg/kg, ig administered daily via gavage for 8 weeks by qPCR analysis; format: functional, organism-based; settings: dose 10-20 mg/kg
[21] = Toxicity in normal diet fed ICR mouse assessed as hepatic total cholesterol content at 10 mg/kg, ig administered daily via gavage for 8 weeks by colorimetric assay; format: organism-based; settings: in vivo, po, 1344 h
[22] = test system: Mus musculus; assay: Upregulation of ABCG1 protein expression in liver of high fat diet fed hyperlipidemic ICR mouse model at 10 mg/kg, ig administered daily via gavage for 8 weeks by western blotting analysis; format: functional, organism-based
[23] = test system: Mus musculus; assay: Protection against hyperlipidemia in high fat diet-fed hyperlipidemic ICR mouse model assessed as reduction in hepatic total cholesterol content at 10 mg/kg, ig administered daily via gavage for 8 weeks by colorimetric assay; format: functional; settings: po, 1344 h
[24] = target: T1, Retinoic acid receptor RXR-alpha (Homo sapiens) (UniProt P19793); assay: Agonist activity at human RXR-alpha expressed in HEK293 cells co-transfected with luciferase reporter plasmid assessed as receptor transactivation at 10 uM incubated for 18 hrs by luciferase reporter gene assay relative to control; format: cell-based
T1 sequence (whole entry): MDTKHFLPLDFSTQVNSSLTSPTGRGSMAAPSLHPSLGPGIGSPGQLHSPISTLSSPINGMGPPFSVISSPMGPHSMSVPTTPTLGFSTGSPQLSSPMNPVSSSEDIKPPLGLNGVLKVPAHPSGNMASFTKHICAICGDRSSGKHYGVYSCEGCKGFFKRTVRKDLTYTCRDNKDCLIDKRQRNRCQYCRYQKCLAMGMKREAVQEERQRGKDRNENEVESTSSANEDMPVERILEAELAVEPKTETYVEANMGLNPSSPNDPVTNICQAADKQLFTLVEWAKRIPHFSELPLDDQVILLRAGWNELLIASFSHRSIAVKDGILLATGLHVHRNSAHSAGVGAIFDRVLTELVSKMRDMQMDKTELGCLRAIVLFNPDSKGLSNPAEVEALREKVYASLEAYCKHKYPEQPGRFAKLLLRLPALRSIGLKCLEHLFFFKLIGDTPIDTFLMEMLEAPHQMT

[25] = test system: Mus musculus; assay: Protection against hyperlipidemia in high fat diet-fed hyperlipidemic ICR mouse model assessed as reduction in serum triglyceride content at 10 mg/kg, ig administered daily via gavage for 8 weeks by spectrophotometric analysis; format: functional; settings: po, 1344 h
[26] = test system: Mus musculus; assay: Downregulation of ABCG8 mRNA expression in liver of high fat diet fed hyperlipidemic ICR mouse model at 10 mg/kg, ig administered daily via gavage for 8 weeks by qPCR analysis; format: functional, organism-based
[27] = Toxicity against normal diet-fed ICR mouse assessed as effect on plasma total cholesterol content at 10 mg/kg, ig administered daily via gavage for 8 weeks by spectrophotometric analysis; format: organism-based; settings: in vivo, po, 1344 h
[28] = test system: Mus musculus; assay: Protection against hyperlipidemia in high fat diet-fed hyperlipidemic ICR mouse model assessed as normal and less pale colored liver at 10 to 20 mg/kg, ig administered daily via gavage for 8 weeks; format: functional, organism-based; settings: dose 10-20 mg/kg

In the case of `CN1c2ccccc2C(=O)N2CCc3c([nH]c4ccccc34)C21` (stereo not drawn), the Ratio [1] is reported as 0.78, the Activity [2] is reported as “Active” and the Ratio [3] is reported as 0.81. The inhibition in vivo at 10 mg/kg [4] was 50%, the Activity [5] was “Non-Toxic” and the inhibition in vivo at 10 mg/kg [6] was 65.1%. For the same compound, the Activity [7] was “Active”, the Activity [8] was “Non-Toxic” and the Activity [9] was “Non-Toxic”. For the same compound, the Activity [10] was “Non-Toxic”, the Activity [11] was “Non-Toxic” and the Activity [12] was “inactive”. For the same compound, the Activity [13] was “Non-Toxic”, the Activity [14] was “Active” and the Activity [15] was “inactive”. The Activity [16] was “Active”, the Activity [17] was “Active” and the Activity [18] was “inactive”. For the same compound, the Activity [19] was “Active”, the Activity [20] was “Active” and the Activity [21] was “Non-Toxic”. For the same compound, the Activity [22] was “Active”, the inhibition in vivo at 10 mg/kg [23] was 42.3% and the fold change (FC) [24] was 1.04. For the same compound, the inhibition in vivo at 10 mg/kg [25] was 34%, the inhibition [26] was “Active” and the Activity [27] was “Non-Toxic”. The Activity [28] was “Active”.
